Experimental data reported in paper PMC5681660, “Reduced hepatitis B and D viral entry using clinically applied drugs as novel inhibitors of the bile acid transporter NTCP” (Scientific Reports, 2017).
Structures can show the parent of a compound that is named as a salt.

Molecular target: T1, human NTCP (Homo sapiens, UniProt Q14973)
T1 sequence (Q14973 1-349): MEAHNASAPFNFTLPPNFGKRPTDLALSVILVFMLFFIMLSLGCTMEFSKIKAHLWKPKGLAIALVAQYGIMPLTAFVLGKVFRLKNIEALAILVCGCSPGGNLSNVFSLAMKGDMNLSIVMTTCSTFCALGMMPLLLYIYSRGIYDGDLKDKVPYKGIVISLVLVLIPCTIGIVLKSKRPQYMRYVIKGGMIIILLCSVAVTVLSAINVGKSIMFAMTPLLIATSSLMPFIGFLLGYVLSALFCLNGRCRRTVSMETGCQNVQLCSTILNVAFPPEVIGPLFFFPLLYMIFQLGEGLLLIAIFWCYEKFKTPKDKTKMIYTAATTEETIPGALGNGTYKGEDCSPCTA
Experiment: Screening taurocholate uptake assay (96-well, [14C]taurocholate, 10 µM drug)
Conditions: for B-score functional assay: screening taurocholate uptake, 10 µM drug

[1] = ranking over the functional and the binding screening assay
[2] = combined ranking of functional and binding screening assays

Row | SMILES | Ranking score [1] | B-score functional assay | Ranking score [2] | B-score functional assay (B-score)
1 | Cc1c(O)cccc1C(=O)N[C@@H](CSc1ccccc1)[C@H](O)CN1C[C@H]2CCCC[C@H]2C[C@H]1C(=O)NC(C)(C)C [Nelfinavir mesylate] | 28.9828 | -3.419 |  | 
2 | CCCCCN(CCCCC)C(=O)C(CCC(=O)[O-])NC(=O)c1ccc(Cl)c(Cl)c1.[Na+] (stereo not drawn) [Lorglumide sodium salt] | 164.012 | -3.59 |  | 
3 | O=C(O)Cc1ccccc1Nc1c(Cl)cccc1Cl [Diclofenac sodium] |  | -1.237 | 464.103 | 
4 | Cc1ncc([N+](=O)[O-])n1CC(O)CCl (stereo not drawn) [Ornidazole] | 260.803 | -1.861 |  | 
5 | COc1cnc(NS(=O)(=O)c2ccc(N)cc2)nc1 [Sulfameter] |  | -1.201 | 466.613 | 
6 | C#C[C@]1(OC(C)=O)CC[C@H]2[C@@H]3CCC4=C[C@@H](OC(C)=O)CC[C@@H]4[C@H]3CC[C@@]21C [Ethynodiol diacetate] | 238.458 | -1.671 |  | 
7 | OC(CCN1CCCCC1)(c1ccccc1)C1CC2C=CC1C2 (stereo not drawn) [Biperiden hydrochloride] |  | -0.229 | 526.369 | 
8 | Cl.O=C1OC(CN2CCOCC2)CN1/N=C/c1ccc([N+](=O)[O-])o1 (stereo not drawn) [Furaltadone hydrochloride] |  | 0.718 | 592.766 | 
9 | CC(C)(C(=O)O)c1ccc(C(O)CCCN2CCC(C(O)(c3ccccc3)c3ccccc3)CC2)cc1 (stereo not drawn) [Fexofenadine HCl] | 234.288 | -2.318 |  | 
10 | C[C@@H]1C[C@H]2[C@@H]3C[C@H](F)C4=CC(=O)C=C[C@]4(C)[C@@]3(Cl)[C@@H](O)C[C@]2(C)[C@H]1C(=O)COC(=O)C(C)(C)C [Clocortolone pivalate] |  |  | 1150.27 | 4.298
11 | CO[C@]12C[C@@H](COC(=O)c3cncc(Br)c3)CN(C)[C@@H]1Cc1cn(C)c3cccc2c13 [Nicergoline] |  | -0.256 | 615.79 | 
12 | CCn1cc(C(=O)[O-])c(=O)c2ccc(C)nc21.[Na+] [Nalidixic acid sodium salt] |  | -0.033 | 500.32 | 
13 | CC(C)(O)c1ccccc1CC[C@@H](SCC1(CC(=O)O)CC1)c1cccc(/C=C/c2ccc3ccc(Cl)cc3n2)c1 [Montelukast] | 55.3173 | -3.762 |  | 
14 | O=c1[nH]c2ccccc2n1CCCN1CCC(n2c(=O)[nH]c3cc(Cl)ccc32)CC1 [Domperidone] |  | -1.309 | 475.277 | 
15 | O=C1CCc2ccc(OCCCCN3CCN(c4cccc(Cl)c4Cl)CC3)cc2N1 [Aripiprazole] |  | 1.007 | 580.393 | 
16 | CC[N+](CC)(CC)CCOc1cccc(OCC[N+](CC)(CC)CC)c1OCC[N+](CC)(CC)CC [Gallamine triethiodide] |  | 3.679 | 565.721 | 
17 | Clc1cccc(Cl)c1N=C1NCCN1 [Clonidine hydrochloride] |  | 0.689 | 587.566 | 
18 | C[C@H](CCC(=O)O)[C@H]1CC[C@H]2[C@@H]3[C@@H](O)C[C@@H]4C[C@H](O)CC[C@]4(C)[C@H]3CC[C@]12C [Urosiol] | 126.965 | -4.542 |  | 
19 | CCCCOc1ccc(CC(=O)NO)cc1 [Bufexamac] | 265.556 | -0.678 |  | 
20 | CC(=O)[C@@]12O[C@](C)(c3ccccc3)O[C@@H]1C[C@H]1[C@@H]3CCC4=CC(=O)CC[C@]4(C)[C@H]3CC[C@@]12C [Algestone acetophenide] | 142.566 | -2.799 |  | 
21 | Nc1ccc(/N=N/c2ccccc2)c(N)n1 [Phenazopyridine hydrochloride] | 182.587 | -0.376 |  | 
22 | Nc1nc2[nH]cc(CCc3ccc(C(=O)N[C@@H](CCC(=O)O)C(=O)O)cc3)c2c(=O)[nH]1 [Pemetrexed disodium] | 234.359 | -1.364 |  | 
23 | CC(=O)O[C@@]12CO[C@@H]1C[C@H](O)[C@@]1(C)C(=O)[C@H](O)C3=C(C)[C@@H](OC(=O)[C@H](O)[C@@H](NC(=O)OC(C)(C)C)c4ccccc4)C[C@@](O)([C@@H](OC(=O)c4ccccc4)[C@H]21)C3(C)C [Docetaxel] | 106.066 | -5.513 |  | 
24 | C/C(=C(\CCOP(=O)(O)O)SC(=O)c1ccccc1)N(C=O)Cc1cnc(C)nc1N [Benfotiamine] |  | -0.56 | 532.072 | 
25 | CC(=O)[C@H]1CC[C@H]2[C@@H]3C=CC4=CC(=O)CC[C@@]4(C)[C@@H]3CC[C@]12C [Dydrogesterone] |  | -1.016 | 511.223 | 
26 | CN(CCCN1c2ccccc2CCc2ccccc21)CC(=O)c1ccc(Cl)cc1 [Lofepramine] |  | 0.81 | 479.183 | 

Row | SMILES | Ranking score [1] | B-score functional assay | Ranking score [2] | B-score functional assay (B-score)
27 | COc1ccc(CCN)cc1OC [Homoveratrylamine] |  | 0.521 | 500.783 | 
28 | C=CCN1CCCC1CNC(=O)c1cc2[nH]nnc2cc1OC.Cl (stereo not drawn) [Alizapride HCl] |  | 2.201 | 642.464 | 
29 | C=CCOC(Cn1ccnc1)c1ccc(Cl)cc1Cl (stereo not drawn) [Enilconazole] |  | -0.129 | 592.625 | 
30 | N#CC(c1ccc(Cl)cc1)c1c(Cl)cc(-n2ncc(=O)[nH]c2=O)cc1Cl (stereo not drawn) [Diclazuril] | 46.9894 | -9.074 |  | 
31 | CS(=O)(=O)O.O=C(O[C@H]1C[C@H]2CC3C[C@@H](C1)N2CC3=O)c1c[nH]c2ccccc12 [Dolasetron mesilate] |  |  | 1169.41 | 1.844
32 | CNC[C@H](O)[C@@H](O)[C@H](O)[C@H](O)CO [Meglumine] | 72.6498 | -3.271 |  | 
33 | Cc1cc(C(=O)NNCc2ccccc2)no1 [Isocarboxazid] |  | 0.681 | 552.74 | 
34 | CC[C@H]1OC(=O)[C@H](C)[C@@H](O[C@H]2C[C@@](C)(OC)[C@@H](O)[C@H](C)O2)[C@H](C)[C@@H](O[C@@H]2O[C@H](C)C[C@H](N(C)C)[C@H]2O)[C@](C)(O)C[C@@H](C)/C(=N\OCOCCOC)[C@H](C)[C@@H](O)[C@]1(C)O [Roxithromycin] | 275.763 | 1.396 |  | 
35 | C#CCN(C)CCCOc1ccc(Cl)cc1Cl [Clorgyline hydrochloride] |  | 0.335 | 645.563 | 
36 | CC(=O)N(O)CCCCCNC(=O)CCC(=O)N(O)CCCCCNC(=O)CCC(=O)N(O)CCCCCN [Deferoxamine mesylate] | 277.171 | -0.936 |  | 
37 | CO[C@H]1/C=C/O[C@@]2(C)Oc3c(C)c(O)c4c(O)c(c5c(nc6cc(C)ccn65)c4c3C2=O)NC(=O)/C(C)=C\C=C\[C@H](C)[C@H](O)[C@@H](C)[C@@H](O)[C@@H](C)[C@H](OC(C)=O)[C@@H]1C [Rifaximin] |  | -0.408 | 627.999 | 
38 | CC(=O)NC[C@H]1CN(c2ccc(N3CCOCC3)c(F)c2)C(=O)O1 [Linezolid] | 172.974 | -1.549 |  | 
39 | Clc1cc(Cl)c(OCC#CI)cc1Cl [Haloprogin] |  |  | 1271.5 | 4.15
40 | CC(=O)NCCCS(=O)(=O)O [Acamprosate calcium] | 126.206 | -0.535 |  | 
41 | CCC1(CC)C(=O)C=CNC1=O [Pyrithyldione] |  | 0.404 | 558.14 | 
42 | CC(=O)OC(C)C[N+](C)(C)C (stereo not drawn) [Methacholine chloride] |  | 0.496 | 628.097 | 
43 | CO[C@@]1(NC(=O)C(C(=O)O)c2ccc(O)cc2)C(=O)N2C(C(=O)O)=C(CSc3nnnn3C)CO[C@@H]21 (stereo partly drawn) [Moxalactam disodium salt] |  | -0.667 | 623.639 | 
44 | Clc1ccccc1C(c1ccccc1)(c1ccccc1)n1ccnc1 [Clotrimazole] | 204.208 | -1.203 |  | 
45 | Oc1ccc(OCc2ccccc2)cc1 [Monobenzone] |  | -0.057 | 560.227 | 
46 | CC=CC(=O)N(CC)c1ccccc1C (mixture of isomers) [Crotamiton] | 248.379 | -0.004 |  | 
47 | Cc1cc(O)c(C(=O)N[C@@H](C(=O)N[C@@H]2C(=O)N3C(C(=O)O)=C(CSc4nnnn4C)CS[C@H]23)c2ccc(O)cc2)cn1 [Cefpiramide] | 261.897 | -1.403 |  | 
48 | Cc1onc(-c2ccccc2Cl)c1C(=O)N[C@@H]1C(=O)N2[C@@H]1SC(C)(C)[C@@H]2C(=O)[O-].[Na+] [Cloxacillin sodium salt] | 243.228 | 0.027 |  | 
49 | C=CCc1ccccc1OCC(O)CNC(C)C (stereo not drawn) [Alprenolol hydrochloride] |  |  | 1166.46 | 2.549
50 | [H]/N=C(/N)N[C@H]1[C@H](O)[C@@H](O)[C@H](O[C@@H]2O[C@@H](C)[C@](O)(C=O)[C@H]2O[C@@H]2O[C@@H](CO)[C@H](O)[C@@H](O)[C@@H]2NC)[C@@H](N/C(N)=N\[H])[C@@H]1O [Streptomycin sulfate] | 115.983 | 1.326 |  | 
51 | COc1ccc(-c2cc(=O)c3c(O)cc(O[C@@H]4O[C@H](CO[C@@H]5O[C@@H](C)[C@H](O)[C@@H](O)[C@H]5O)[C@@H](O)[C@H](O)[C@H]4O)cc3o2)cc1O [Diosmin] | 207.123 | -1.635 |  | 
